Results from patent US8778889B2, “Antimicrobial decapeptide oral hygiene treatment” (The United States of America as represented by the …, priority 2003, dated 2014).

Experiments:
[1] = test system: VRE ATCC #51299; format: cell-based, Enterococci
From the text: (§1) As shown in the table below, many drug-resistant pathogens including multidrug-resistant Acinetobacter baumannii (clinical isolates) were susceptible to the bactericidal activity of the newly developed antimicrobial peptides. […] This is shown by their lower MIC and MBC against a number of antibiotic-resistant bacteria including methicillin-resistant Staphylococcus aureus, vancomycin-resistant Enterococci, and multidrug-resistant Acinetobacter baumannii. Many of these resistant strains are involved in nosocomial infections, which affect the immunocompromised and the elderly individuals with weakened defenses. The tests were done in a broth microdilution assay as described in our earlier publication (Concannon et al., 2003).

[2] = test system: VRE VVRAMC #7; format: cell-based, Enterococci
From the text: as §1

[3] = test system: VRE WRAMC #3; format: cell-based, Enterococci
From the text: as §1

[4] = test system: VRE WRAMC #6; format: cell-based, Enterococci
From the text: as §1

[5] = test system: MRSA WRAMC #12; format: cell-based, Staphylococcus aureus
From the text: as §1

[6] = test system: MRSA ATCC #33591; format: cell-based, Staphylococcus aureus
From the text: as §1

[7] = test system: MRSA ATCC #43300; format: cell-based, Staphylococcus aureus
From the text: as §1

[8] = test system: MRSA VVRAMC #10; format: cell-based, Staphylococcus aureus
From the text: as §1

[9] = test system: MRSA VVRAMC #1; format: cell-based, Staphylococcus aureus
From the text: as §1

[10] = test system: MRSA WRAMC #9; format: cell-based, Staphylococcus aureus
From the text: as §1

[11] = test system: A. baumannii ATCC #19606; format: cell-based, Acinetobacter baumannii
From the text: as §1

[12] = test system: A. baumannii WRAMC #17; format: cell-based, Acinetobacter baumannii
From the text: as §1

[13] = test system: A. baumannii WRAMC #8; format: cell-based, Acinetobacter baumannii
From the text: as §1

[14] = test system: A. baumannii WRAMC #16; format: cell-based, Acinetobacter baumannii
From the text: as §1

[15] = test system: A. baumannii WRAMC #15; format: cell-based, Acinetobacter baumannii
From the text: as §1

[16] = test system: A. baumannii WRAMC #14; format: cell-based, Acinetobacter baumannii
From the text: as §1

[17] = test system: A. baumannii WRAMC #18; format: cell-based, Acinetobacter baumannii
From the text: as §1

[18] = test system: A. baumannii WRAMC #2; format: cell-based, Acinetobacter baumannii
From the text: as §1

[19] = test system: A. baumannii WRAMC #11; format: cell-based, Acinetobacter baumannii
From the text: as §1

[20] = test system: A. baumannii WRAMC #4; format: cell-based, Acinetobacter baumannii
From the text: as §1

[21] = test system: A. baumannii WRAMC #13; format: cell-based, Acinetobacter baumannii
From the text: as §1

[22] = test system: A. baumannii WRAMC #19; format: cell-based, Acinetobacter baumannii
From the text: as §1

[23] = test system: A. baumannii WRAMC #5; format: cell-based, Acinetobacter baumannii
From the text: as §1

[24] = test system: Actinomyces naeslundii; assay: Adherence inhibition of tritiated A. naeslundii to saliva-coated HA disks; format: cell-based; details: disks pretreated with KSL-W 1 mg/ml; 2 hour incubation at 37° C.
Description: In these studies, saliva-coated HA disks pre-treated with salivary proteins, KSL-W (1 mg/ml), or chlorhexidine (1 mg/ml), were used as colonizable surfaces to test the adherence of tritiated A. naeslundii, an early colonizer that is involved in dental plaque formation. In these experiments, labeled A. naeslundii ([…] cells per ml) were incubated for 2 h with HA disks that were pre-treated with different agents.

Question: What does the source list for “H-KKVVFWVKFK-NH2 [KSL-W, NH2-Lys-Lys-Val-Val-Phe-Trp-Val-Lys-Phe-Lys-CONH2]”?
Answer: MBC [1]: 200 µg/mL; MIC [1]: 100 µg/mL; MBC [2]: 25 µg/mL; MBC [3]: 200 µg/mL; MIC [3]: 100 µg/mL; MBC [4]: 100 µg/mL; MIC [4]: 12.5 µg/mL; MBC [5]: >200 µg/mL; MIC [5]: 200 µg/mL; MBC [6]: 200 µg/mL; MIC [6]: 100 µg/mL; MBC [7]: 50 µg/mL; MIC [7]: 25 µg/mL; MBC [8]: 200 µg/mL; MBC [9]: 100 µg/mL; MBC [10]: >200 µg/mL; MIC [10]: 200 µg/mL; MBC [11]: 100 µg/mL; MBC [12]: 25 µg/mL; MBC [13]: 25 µg/mL; MBC [14]: 50 µg/mL; MBC [15]: 50 µg/mL; MBC [16]: 50 µg/mL; MIC [16]: 25 µg/mL; MBC [17]: 25 µg/mL; MIC [17]: 12.5 µg/mL; MBC [18]: 100 µg/mL; MIC [18]: 25 µg/mL; MBC [19]: 25 µg/mL; MBC [20]: 25 µg/mL; MBC [21]: 50 µg/mL; MBC [22]: 100 µg/mL; MIC [22]: 50 µg/mL; MBC [23]: 25 µg/mL; MIC [23]: 12.5 µg/mL; adherence of tritiated A. naeslundii to pretreated HA disks [24]: great reduction in the number of bacteria that attached
